The values below come from DBAASP.

In brackets after ≈: the same amount, converted by molar mass.

Among the test systems are Bacillus cereus PCM 2003; Candida tropicalis; Candida krusei DSM 6128; Escherichia coli; Staphylococcus aureus; Bacillus subtilis DELTA; Acinetobacter baumannii; Staphylococcus aureus 75; Escherichia coli 780; Escherichia coli 804.
Common to all, as to assay: ≥ marks a high value that may be exact or a test limit, other limits are often not marked, values filed in µg/mL are converted to µM
For assay [1], the system named is Candida albicans ATCC 10231.
Assay [2] concerns Cryptococcus neoformans ATCC 32264.
The subject of assay [3] is Staphylococcus aureus ATCC 25923.
The subject of assay [4] is Staphylococcus epidermidis ATCC 12228.
Assay [5] deals with Pseudomonas aeruginosa ATCC 27857.
For assay [6], the system named is Escherichia coli ATCC 25922.
In assay [7] the test system is Candida glabrata DSM 11226.
Assay [8] deals with Bifidobacterium longum subsp. infantis.
The subject of assay [9] is Zymomonas mobilis ATCC 10988.
Assay [10] concerns Escherichia coli DH5alpha.
Assay [11] relates to Escherichia coli NBRC 3972.
Assay [12] concerns Acinetobacter baumannii ATCC 19606.
For assay [13], the system named is Bacillus subtilis NBRC 3009.
Assay [14] concerns Staphylococcus aureus NBRC 13276.
In assay [15] the test system is Acinetobacter baumannii 9931.
In assay [16] the test system is Pseudomonas aeruginosa ATCC 9027.
Assay [17] deals with Staphylococcus aureus 113.
For assay [18], the system named is Pseudomonas aeruginosa 73.
For assay [19], the system named is Acinetobacter baumannii 97830.
In assay [20] the test system is Staphylococcus aureus ATCC 29213.
Assay [21] deals with Pseudomonas aeruginosa ATCC 27853.
Assay [22] has as its system Klebsiella pneumoniae ATCC 700603.
Assay [23] has as its system Bacillus subtilis ATCC 23857.
Assay [24] deals with Pseudomonas aeruginosa 50.
In assay [25] the test system is Bacillus subtilis ATCC 6051.
In assay [26] the test system is Escherichia coli NEB5alpha.

For the compound `C[C@H](N)C(=O)N[C@@H](CCC(N)=O)C(=O)N[C@@H](Cc1c[nH]c2ccccc12)C(=O)N[C@@H](CCCN=C(N)N)C(=O)N[C@@H](CCCN=C(N)N)C(=O)N[C@@H](Cc1c[nH]c2ccccc12)C(=O)N[C@@H](Cc1c[nH]c2ccccc12)C(=O)N[C@@H](CCC(N)=O)C(=O)N[C@@H](Cc1c[nH]c2ccccc12)C(=O)N[C@@H](CCCN=C(N)N)C(=O)N[C@@H](CCCN=C(N)N)C(N)=O` [AQWRRWWQWRR], the MIC (in general, the lowest concentration that inhibits growth of the organism) came out at 50 µM (≈ 85.7 µg/mL) in [1] and 25 µM (≈ 42.8 µg/mL) in assay [2].
With `CSCC[C@H](NC(=O)[C@H](C)NC(=O)[C@H](CCCN=C(N)N)NC(=O)[C@H](CCCCN)NC(=O)[C@H](Cc1c[nH]c2ccccc12)NC(=O)[C@H](CCC(N)=O)NC(=O)[C@H](Cc1ccccc1)NC(=O)[C@@H](N)CS)C(=O)N[C@@H](CCCN=C(N)N)C(=O)N[C@@H](CCCCN)C(=O)N[C@H](C(=O)N[C@@H](CCCN=C(N)N)C(N)=O)C(C)C` [CFQWKRAMRKVR], the MIC was > 155 µM in [1]; 39.2 µM (≈ 63 µg/mL) in assay [3]; ≥ 155 µM in the assay on Bacillus cereus PCM 2003; 2.49 µM (≈ 4 µg/mL) in assay [4]; ≥ 77.7 µM in assay [5]; 9.94 µM (≈ 16 µg/mL) in assay [6]. Moreover, the MIC (against Candida tropicalis; in assay [7]; against Candida krusei DSM 6128) was ≥ 155 µM in each case.
For the compound `CSCC[C@H](NC(=O)[C@@H](N)CC(=O)O)C(=O)N[C@@H](CC(C)C)C(=O)N[C@H](C(=O)N[C@H](C(=O)N[C@@H](CC(=O)O)C(=O)N1CCC[C@H]1C(=O)N[C@@H](CCCCN)C(=O)O)C(C)C)C(C)C` [DMLVVDPK], the minimum inhibitory concentration (MIC) in the assay with Escherichia coli is 3270 µM (≈ 3000 µg/mL); in assay [8] it was ≥ 3270 µM; against Staphylococcus aureus, 3270 µM (≈ 3000 µg/mL).
Turning to `CC[C@H](C)[C@H](NC(=O)[C@H](CCCN=C(N)N)NC(=O)[C@H](CCC(N)=O)NC(=O)[C@@H](NC(=O)[C@@H](NC(=O)[C@H](CCCN=C(N)N)NC(=O)[C@H](CCCCN)NC(=O)[C@H](Cc1ccccc1)NC(C)=O)[C@@H](C)CC)C(C)C)C(=O)N[C@@H](CCCN=C(N)N)C(=O)N[C@@H](CC(=O)O)C(=O)N[C@@H](Cc1ccccc1)C(=O)N[C@@H](CC(C)C)C(=O)N[C@@H](CCCN=C(N)N)C(N)=O` [FKRIVQRIRDFLR], the MIC in [9] was ≥ 114 µM; against Bacillus subtilis DELTA, 22.9 µM (≈ 40.9 µg/mL); in assay [10], ≥ 57.2 µM.
Turning to `CC[C@H](C)[C@H](NC(=O)[C@H](CO)NC(=O)[C@H](Cc1ccccc1)NC(=O)[C@H](CC(C)C)NC(=O)[C@H](CO)NC(=O)CNC(=O)[C@H](CC(C)C)NC(=O)[C@@H](N)Cc1ccccc1)C(=O)NCC(=O)N[C@@H](CO)C(=O)N[C@@H](CCCCN)C(=O)N[C@@H](CC(C)C)C(=O)N[C@@H](CC(C)C)C(=O)N1CCC[C@H]1C(=O)NCC(=O)N[C@H](C(=O)N[C@H](C(=O)N[C@@H](CCCCN)C(=O)N[C@@H](CC(C)C)C(=O)N[C@@H](Cc1ccccc1)C(=O)N[C@@H](CCC(N)=O)C(=O)N[C@@H](CCCN=C(N)N)C(=O)N[C@@H](CCCCN)C(=O)N[C@@H](CCCCN)C(=O)N[C@@H](CCC(N)=O)C(N)=O)[C@@H](C)CC)C(C)C` [FLGSLFSIGSKLLPGVIKLFQRKKQ], the MIC was found to be 10 µM (≈ 28 µg/mL) in assay [11]; 0.9 µM (≈ 2.52 µg/mL) in [12]; 1.8 µM (≈ 5.05 µg/mL) in the assay on Acinetobacter baumannii; 0.707 µM (≈ 1.98 µg/mL) in assay [13]; 3.54 µM (≈ 9.92 µg/mL) in assay [14].
Take `NC(=O)[C@H](Cc1ccccc1)NC(=O)[C@H](Cc1c[nH]c2ccccc12)NC(=O)[C@H](CCCN=C(N)N)NC(=O)[C@H](Cc1c[nH]c2ccccc12)NC(=O)[C@H](Cc1c[nH]c2ccccc12)NC(=O)[C@H](Cc1c[nH]c2ccccc12)NC(=O)[C@H](CCCN=C(N)N)NC(=O)[C@H](Cc1c[nH]c2ccccc12)NC(=O)[C@@H](N)Cc1ccccc1` [FWRWWWRWF]: the MIC was ≥ 32 µM in assay [15]; 64 µM (≈ 99.5 µg/mL) in assay [12]; 4 µM (≈ 6.22 µg/mL) in [4]; 128 µM (≈ 199 µg/mL) in [16]; 8 µM (≈ 12.4 µg/mL) in assay [17]; 8 µM (≈ 12.4 µg/mL) against Staphylococcus aureus 75. Also, the MIC with Escherichia coli 780 was ≥ 32 µM; in [18], ≥ 128 µM; in assay [19], ≥ 32 µM; in assay [20], 4 µM (≈ 6.22 µg/mL); in assay [21], > 128 µM; in [22] it was 16 µM (≈ 24.9 µg/mL). Moreover, the MIC was ≥ 64 µM in the assay on Escherichia coli 804, 2 µM (≈ 3.11 µg/mL) in assay [23] and ≥ 128 µM in assay [24].
Take `CC(C)C[C@H](NC(=O)[C@H](C)NC(=O)[C@H](CC(=O)O)NC(=O)[C@H](CCC(=O)O)NC(=O)[C@H](CC(C)C)NC(=O)[C@H](Cc1ccccc1)NC(=O)[C@H](CC(=O)O)NC(=O)[C@@H](N)CCCN=C(N)N)C(=O)N[C@@H](CC(N)=O)C(=O)O` [RDFLEDALN]: the minimal inhibitory concentration (MIC) is ≥ 500 µM in assay [25] and ≥ 1000 µM in assay [26].
